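Cells were grown in 96-well plates and exposed to each compound for 48 hours at five concentrations; endpoints were interpolated linearly between bracketing concentrations, or set to the highest concentration if not reached. GI50 = concentration required for 50% inhibition of growth. At the TGI there is no net growth.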
Tests used:
Assay in all cases: NCI tumour cell line growth inhibition, 48 h
786-0 renal = tested on: 786-0 renal
A498 renal = tested on: A498 renal
A549 NSCLC = tested on: A549 NSCLC
ACHN renal = tested on: ACHN renal
BT-549 breast = tested on: BT-549 breast
CAKI-1 renal = tested on: CAKI-1 renal
CCRF-CEM leukemia = tested on: CCRF-CEM leukemia
COLO 205 colon = tested on: COLO 205 colon
DU-145 prostate = tested on: DU-145 prostate
EKVX NSCLC = tested on: EKVX NSCLC
HCC-2998 colon = tested on: HCC-2998 colon
HCT-116 colon = tested on: HCT-116 colon
HCT-15 colon = tested on: HCT-15 colon
HL-60(TB) leukemia = tested on: HL-60(TB) leukemia
HOP-62 NSCLC = tested on: HOP-62 NSCLC
HOP-92 NSCLC = tested on: HOP-92 NSCLC
HS 578T breast = tested on: HS 578T breast
HT29 colon = tested on: HT29 colon
IGROV1 ovarian = tested on: IGROV1 ovarian
K-562 leukemia = tested on: K-562 leukemia
KM12 colon = tested on: KM12 colon
LOX IMVI melanoma = tested on: LOX IMVI melanoma
M14 melanoma = tested on: M14 melanoma
MALME-3M melanoma = tested on: MALME-3M melanoma
MCF7 breast = tested on: MCF7 breast
MDA-MB-231 breast = tested on: MDA-MB-231 breast
MDA-MB-435 = tested on: MDA-MB-435
MOLT-4 leukemia = tested on: MOLT-4 leukemia
NCI-H226 lung = tested on: NCI-H226 lung
NCI-H23 lung = tested on: NCI-H23 lung
NCI-H460 lung = tested on: NCI-H460 lung
NCI-H522 lung = tested on: NCI-H522 lung
NCI/ADR-RES ovarian = tested on: NCI/ADR-RES ovarian
OVCAR-3 ovarian = tested on: OVCAR-3 ovarian
OVCAR-4 ovarian = tested on: OVCAR-4 ovarian
OVCAR-5 ovarian = tested on: OVCAR-5 ovarian
OVCAR-8 ovarian = tested on: OVCAR-8 ovarian
PC-3 prostate = tested on: PC-3 prostate
RPMI-8226 leukemia = tested on: RPMI-8226 leukemia
RXF 393 renal = tested on: RXF 393 renal
SF-268 CNS = tested on: SF-268 CNS
SF-295 CNS = tested on: SF-295 CNS
SF-539 CNS = tested on: SF-539 CNS
SK-MEL-2 melanoma = tested on: SK-MEL-2 melanoma
SK-MEL-28 melanoma = tested on: SK-MEL-28 melanoma
SK-MEL-5 melanoma = tested on: SK-MEL-5 melanoma
SK-OV-3 ovarian = tested on: SK-OV-3 ovarian
SN12C renal = tested on: SN12C renal
SNB-19 CNS = tested on: SNB-19 CNS
SNB-75 CNS = tested on: SNB-75 CNS
SR leukemia = tested on: SR leukemia
SW-620 colon = tested on: SW-620 colon
T-47D breast = tested on: T-47D breast
TK-10 renal = tested on: TK-10 renal
U251 CNS = tested on: U251 CNS
UACC-257 melanoma = tested on: UACC-257 melanoma
UACC-62 melanoma = tested on: UACC-62 melanoma
UO-31 renal = tested on: UO-31 renal
MDA-N = tested on: MDA-N

## Cc1ccc2c(c1)/C(=N\N=C/c1cn(C(C)C)c3ccccc13)C(=O)N2
786-0 renal
  GI50: 18.6 µM
  TGI: > 100 µM
A498 renal
  GI50: 1600 nM
  TGI: > 100 µM
A549 NSCLC
  GI50: 5.66 µM
  TGI: > 100 µM
ACHN renal
  GI50: 2950 nM
  TGI: > 100 µM
BT-549 breast
  GI50: 3.58 µM
  TGI: > 100 µM
CAKI-1 renal
  GI50: 2600 nM
  TGI: > 100 µM
CCRF-CEM leukemia
  GI50: 367 nM
  TGI: > 100 µM
COLO 205 colon
  GI50: 324 nM
  TGI: 2.08 µM
DU-145 prostate
  GI50: 8.17 µM
  TGI: > 100 µM
EKVX NSCLC
  GI50: 22 µM
  TGI: > 100 µM
HCC-2998 colon
  GI50: 2420 nM
  TGI: 14.9 µM
HCT-116 colon
  GI50: 1090 nM
  TGI: > 100 µM
HCT-15 colon
  GI50: 2120 nM
  TGI: > 100 µM
HL-60(TB) leukemia
  GI50: 1950 nM
  TGI: 6.17 µM
HOP-62 NSCLC
  GI50: 28.4 µM
  TGI: > 100 µM
HOP-92 NSCLC
  GI50: 1730 nM
  TGI: 67.2 µM
HS 578T breast
  GI50: 10.6 µM
  TGI: > 100 µM
HT29 colon
  GI50: 2820 nM
  TGI: > 100 µM
IGROV1 ovarian
  GI50: 1370 nM
  TGI: > 100 µM
K-562 leukemia
  GI50: 1960 nM
  TGI: > 100 µM
KM12 colon
  GI50: 5.5 µM
  TGI: > 100 µM
LOX IMVI melanoma
  GI50: 2550 nM
  TGI: 25.2 µM
M14 melanoma
  GI50: 3.95 µM
  TGI: > 100 µM
MALME-3M melanoma
  GI50: 1380 nM
  TGI: 9.81 µM
MCF7 breast
  GI50: 504 nM
  TGI: > 100 µM
MDA-MB-231 breast
  GI50: 1250 nM
  TGI: 5.83 µM
MDA-MB-435
  GI50: 2160 nM
  TGI: 10.3 µM
MOLT-4 leukemia
  GI50: 252 nM
  TGI: 0.753 µM
NCI-H226 lung
  GI50: 2670 nM
  TGI: > 100 µM
NCI-H23 lung
  GI50: 4.56 µM
  TGI: > 100 µM
NCI-H460 lung
  GI50: 833 nM
  TGI: 13.1 µM
NCI-H522 lung
  GI50: 1050 nM
  TGI: > 100 µM
NCI/ADR-RES ovarian
  GI50: 73 µM
  TGI: > 100 µM
OVCAR-3 ovarian
  GI50: 311 nM
  TGI: 31.9 µM
OVCAR-4 ovarian
  GI50: 277 nM
  TGI: > 100 µM
OVCAR-5 ovarian
  GI50: 35.1 µM
  TGI: > 100 µM
OVCAR-8 ovarian
  GI50: 4.7 µM
  TGI: > 100 µM
PC-3 prostate
  GI50: 723 nM
  TGI: 45.3 µM
RPMI-8226 leukemia
  GI50: 396 nM
  TGI: 7.31 µM
RXF 393 renal
  GI50: 4.31 µM
  TGI: > 100 µM
SF-268 CNS
  GI50: 4.9 µM
  TGI: > 100 µM
SF-295 CNS
  GI50: > 100 µM
  TGI: > 100 µM
SF-539 CNS
  GI50: 2900 nM
  TGI: > 100 µM
SK-MEL-2 melanoma
  GI50: 2300 nM
  TGI: 23 µM
SK-MEL-28 melanoma
  GI50: 21.9 µM
  TGI: > 100 µM
SK-MEL-5 melanoma
  GI50: 4.57 µM
  TGI: > 100 µM
SK-OV-3 ovarian
  GI50: > 100 µM
  TGI: > 100 µM
SN12C renal
  GI50: 4.47 µM
  TGI: > 100 µM
SNB-19 CNS
  GI50: 7.18 µM
  TGI: > 100 µM
SNB-75 CNS
  GI50: 3.2 µM
  TGI: > 100 µM
SR leukemia
  GI50: 261 nM
  TGI: > 100 µM
SW-620 colon
  GI50: 937 nM
  TGI: > 100 µM
T-47D breast
  GI50: 953 nM
  TGI: > 100 µM
TK-10 renal
  GI50: 15 µM
  TGI: > 100 µM
U251 CNS
  GI50: 3.9 µM
  TGI: > 100 µM
UACC-257 melanoma
  GI50: 5.05 µM
  TGI: > 100 µM
UACC-62 melanoma
  GI50: 2690 nM
  TGI: > 100 µM
UO-31 renal
  GI50: 1980 nM
  TGI: > 100 µM

## CCOC(=O)c1c(-c2ccccc2)[nH]c2ccccc2c1=O
786-0 renal
  TGI: > 100 µM
A498 renal
  TGI: > 100 µM
A549 NSCLC
  TGI: > 100 µM
ACHN renal
  TGI: > 100 µM
CAKI-1 renal
  TGI: > 100 µM
COLO 205 colon
  TGI: > 100 µM
DU-145 prostate
  TGI: > 100 µM
EKVX NSCLC
  TGI: > 100 µM
HCC-2998 colon
  TGI: > 100 µM
HCT-116 colon
  TGI: > 100 µM
HCT-15 colon
  TGI: > 100 µM
HL-60(TB) leukemia
  TGI: > 100 µM
HOP-62 NSCLC
  TGI: > 100 µM
HOP-92 NSCLC
  TGI: > 100 µM
HS 578T breast
  TGI: > 100 µM
HT29 colon
  TGI: > 100 µM
IGROV1 ovarian
  TGI: > 100 µM
K-562 leukemia
  TGI: > 100 µM
KM12 colon
  TGI: > 100 µM
M14 melanoma
  TGI: > 100 µM
MALME-3M melanoma
  TGI: > 100 µM
MCF7 breast
  TGI: > 100 µM
MDA-N
  TGI: > 100 µM
MOLT-4 leukemia
  TGI: > 100 µM
NCI-H23 lung
  TGI: > 100 µM
NCI-H460 lung
  TGI: > 100 µM
NCI/ADR-RES ovarian
  TGI: > 100 µM
OVCAR-4 ovarian
  TGI: > 100 µM
OVCAR-5 ovarian
  TGI: > 100 µM
OVCAR-8 ovarian
  TGI: > 100 µM
PC-3 prostate
  TGI: > 100 µM
RPMI-8226 leukemia
  TGI: > 100 µM
RXF 393 renal
  TGI: > 100 µM
SF-268 CNS
  TGI: > 100 µM
SF-295 CNS
  TGI: > 100 µM
SK-MEL-28 melanoma
  TGI: > 100 µM
SK-MEL-5 melanoma
  TGI: > 100 µM
SK-OV-3 ovarian
  TGI: > 100 µM
SNB-19 CNS
  TGI: > 100 µM
SNB-75 CNS
  TGI: > 100 µM
SR leukemia
  TGI: > 100 µM
SW-620 colon
  TGI: > 100 µM
T-47D breast
  TGI: > 100 µM
TK-10 renal
  TGI: > 100 µM
U251 CNS
  TGI: > 100 µM
UACC-257 melanoma
  TGI: > 100 µM
UO-31 renal
  TGI: > 100 µM

## C1=C(N2CCOCC2)/C(=C2\SC(=Nc3ccccc3)C(=Nc3ccccc3)N2c2ccccc2)CC1
A498 renal
  TGI: > 100 µM
CAKI-1 renal
  TGI: > 100 µM
CCRF-CEM leukemia
  TGI: > 100 µM
COLO 205 colon
  TGI: > 100 µM
DU-145 prostate
  TGI: > 100 µM
HCT-116 colon
  TGI: > 100 µM
HCT-15 colon
  TGI: > 100 µM
HOP-62 NSCLC
  TGI: > 100 µM
HOP-92 NSCLC
  TGI: > 100 µM
HS 578T breast
  TGI: > 100 µM
HT29 colon
  TGI: > 100 µM
IGROV1 ovarian
  TGI: > 100 µM
K-562 leukemia
  TGI: > 100 µM
KM12 colon
  TGI: > 100 µM
M14 melanoma
  TGI: > 100 µM
MALME-3M melanoma
  TGI: > 100 µM
MDA-MB-231 breast
  TGI: > 100 µM
MDA-MB-435
  TGI: > 100 µM
MDA-N
  TGI: > 100 µM
MOLT-4 leukemia
  TGI: > 100 µM
NCI-H23 lung
  TGI: > 100 µM
NCI-H460 lung
  TGI: > 100 µM
NCI-H522 lung
  TGI: > 100 µM
NCI/ADR-RES ovarian
  TGI: > 100 µM
OVCAR-3 ovarian
  TGI: > 100 µM
OVCAR-8 ovarian
  TGI: > 100 µM
PC-3 prostate
  TGI: > 100 µM
RPMI-8226 leukemia
  TGI: > 100 µM
SF-295 CNS
  TGI: > 100 µM
SK-MEL-2 melanoma
  TGI: > 100 µM
SK-MEL-28 melanoma
  TGI: > 100 µM
SK-MEL-5 melanoma
  TGI: > 100 µM
SK-OV-3 ovarian
  TGI: 69 µM
SN12C renal
  TGI: > 100 µM
SNB-75 CNS
  TGI: 65.4 µM
SR leukemia
  TGI: > 100 µM
T-47D breast
  TGI: > 100 µM
U251 CNS
  TGI: > 100 µM
UACC-62 melanoma
  TGI: 48.9 µM

— PubChem BioAssay (NCI)
